Test results as given in ChEMBL document CHEMBL3600362, “Synthesis of CNS active thyrotropin-releasing hormone (TRH)-like peptides: Biological evaluation and effect on cognitive impairment induced by cerebral ischemia in mice” (Bioorg Med Chem, 2015).
Active and inactive are the calls of the source. The calls are words filed in the database; no cut-off is given here.

Assays:
Mus musculus = experiment: Reduction in pentobarbital-induced sleeping time in Swiss mouse at 10 umol/kg, iv; assay type: functional
[1] = target: T1, Thyrotropin-releasing hormone receptor (Mus musculus, UniProt P21761); experiment: Agonist activity at mouse TRH-R1 expressed in HEK293 cells assessed as induction of changes in intracellular Ca2+ level by FLIPR method; assay type: functional, cell-based
T1 sequence (P21761 whole entry): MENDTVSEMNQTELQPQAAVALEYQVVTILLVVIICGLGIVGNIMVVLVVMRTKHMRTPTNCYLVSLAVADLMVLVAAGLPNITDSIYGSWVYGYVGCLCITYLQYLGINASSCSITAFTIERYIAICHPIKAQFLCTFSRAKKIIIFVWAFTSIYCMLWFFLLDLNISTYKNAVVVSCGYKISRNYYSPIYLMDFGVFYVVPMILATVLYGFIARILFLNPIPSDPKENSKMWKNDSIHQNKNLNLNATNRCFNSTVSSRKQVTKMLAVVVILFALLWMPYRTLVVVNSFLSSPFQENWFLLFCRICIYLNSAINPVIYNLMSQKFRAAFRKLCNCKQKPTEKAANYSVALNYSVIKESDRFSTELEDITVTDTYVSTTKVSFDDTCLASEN

[2] = target: T2, Thyrotropin-releasing hormone receptor 2 (Mus musculus, UniProt Q9ERT1); experiment: Agonist activity at mouse TRH-R2 expressed in HEK293 cells assessed as induction of changes in intracellular Ca2+ level by FLIPR method; assay type: functional, cell-based
T2 sequence (Q9ERT1 whole entry): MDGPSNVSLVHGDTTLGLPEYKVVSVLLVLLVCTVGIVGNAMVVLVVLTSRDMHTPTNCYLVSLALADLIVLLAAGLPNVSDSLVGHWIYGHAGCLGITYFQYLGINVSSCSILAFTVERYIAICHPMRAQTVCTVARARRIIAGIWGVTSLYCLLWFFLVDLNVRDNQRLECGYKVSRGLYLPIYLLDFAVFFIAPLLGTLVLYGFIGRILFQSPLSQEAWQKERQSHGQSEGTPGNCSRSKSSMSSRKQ

[3] = target: T2, Thyrotropin-releasing hormone receptor 2; experiment: Displacement of [3H]-1-MeHis-TRH from mouse TRH-R2 expressed in HEK293 cells incubated up to 4 hrs by scintillation counting method; assay type: cell-based
HEK293 = experiment: Selectivity index, ratio of EC50 for agonist activity at mouse TRH-R1 expressed in HEK293 cells to EC50 for agonist activity at mouse TRH-R2 expressed in HEK293 cells; assay type: cell-based
[4] = target: T1, Thyrotropin-releasing hormone receptor; experiment: Displacement of [3H]-1-MeHis-TRH from mouse TRH-R1 expressed in HEK293 cells incubated up to 4 hrs by scintillation counting method; assay type: cell-based
Rattus norvegicus [5] = experiment: Neuroprotective activity in Sprague-Dawley rat model of MCA occlusion-induced memory impairment assessed as maximum latency time during acquisition trial at 10 umol/kg, iv by passive avoidance test (reference value: 49 secs); assay type: functional
Rattus norvegicus [6] = experiment: Increase in neuronal survival in Sprague-Dawley rat model of MCA occlusion-induced focal cerebral ischemia assessed as increase in neuronal density at hippocampal CA1 regions at 10 umol/kg, iv by Cresyl violet staining based microscopy; assay type: functional, organism-based
Rattus norvegicus [7] = experiment: Neuroprotective activity in Sprague-Dawley rat model of MCA occlusion-induced memory impairment assessed as minimum latency time during acquisition trial at 10 umol/kg, iv by passive avoidance test (reference value: 49 secs); assay type: functional
Rattus norvegicus [8] = experiment: Reduction in neurological score in Sprague-Dawley rat model of MCA occlusion-induced focal cerebral ischemia at 10 umol/kg, iv administered immediately after reperfusion and measured 22 hrs after reperfusion up to 7 days; assay type: functional, organism-based
Rattus norvegicus [9] = experiment: Effect on mean latency time during retention trial in Sprague-Dawley rat model of MCA occlusion-induced memory impairment at 10 umol/kg, iv by passive avoidance test; assay type: functional, organism-based
Rattus norvegicus [10] = experiment: Reduction in volume of infarction in Sprague-Dawley rat model of MCA occlusion-induced focal cerebral ischemia assessed as infarcts volume at 10 umol/kg, iv administered immediately after reperfusion and measured 22 hrs after reperfusion (reference value: 237.69 +/- 4.08 mm3); assay type: functional
Rattus norvegicus [11] = experiment: Inhibition of lipid peroxidation in brain homogenates of Sprague-Dawley rat model of 2 hrs MCA occlusion-induced focal cerebral ischemia assessed as reduction in MDA levels at 10 umol/kg, iv administered immediately after reperfusion and measured 22 hrs after reperfusion by TBARS assay; assay type: functional, organism-based
Rattus norvegicus [12] = experiment: Reduction in cognitive impairment in Sprague-Dawley rat assessed as reduction in latency to first entry to platform zone during retention trial at 10 umol/kg, iv measured on day 6 by Morris water maze test (reference value: 95.76 secs); assay type: functional
Rattus norvegicus [13] = experiment: Effect on mean latency time during acquisition trial in Sprague-Dawley rat model of MCA occlusion-induced memory impairment at 10 umol/kg, iv by passive avoidance test; assay type: ADME, organism-based; settings: in vivo
[14] = target: T3, Thyrotropin-releasing hormone-degrading ectoenzyme (Mus musculus, UniProt Q8K093); experiment: Stability assessed as mouse recombinant TRH-degrading ectoenzyme-mediated compound degradation up to 18 hrs by HPLC method; assay type: ADME
T3 sequence (Q8K093 whole entry): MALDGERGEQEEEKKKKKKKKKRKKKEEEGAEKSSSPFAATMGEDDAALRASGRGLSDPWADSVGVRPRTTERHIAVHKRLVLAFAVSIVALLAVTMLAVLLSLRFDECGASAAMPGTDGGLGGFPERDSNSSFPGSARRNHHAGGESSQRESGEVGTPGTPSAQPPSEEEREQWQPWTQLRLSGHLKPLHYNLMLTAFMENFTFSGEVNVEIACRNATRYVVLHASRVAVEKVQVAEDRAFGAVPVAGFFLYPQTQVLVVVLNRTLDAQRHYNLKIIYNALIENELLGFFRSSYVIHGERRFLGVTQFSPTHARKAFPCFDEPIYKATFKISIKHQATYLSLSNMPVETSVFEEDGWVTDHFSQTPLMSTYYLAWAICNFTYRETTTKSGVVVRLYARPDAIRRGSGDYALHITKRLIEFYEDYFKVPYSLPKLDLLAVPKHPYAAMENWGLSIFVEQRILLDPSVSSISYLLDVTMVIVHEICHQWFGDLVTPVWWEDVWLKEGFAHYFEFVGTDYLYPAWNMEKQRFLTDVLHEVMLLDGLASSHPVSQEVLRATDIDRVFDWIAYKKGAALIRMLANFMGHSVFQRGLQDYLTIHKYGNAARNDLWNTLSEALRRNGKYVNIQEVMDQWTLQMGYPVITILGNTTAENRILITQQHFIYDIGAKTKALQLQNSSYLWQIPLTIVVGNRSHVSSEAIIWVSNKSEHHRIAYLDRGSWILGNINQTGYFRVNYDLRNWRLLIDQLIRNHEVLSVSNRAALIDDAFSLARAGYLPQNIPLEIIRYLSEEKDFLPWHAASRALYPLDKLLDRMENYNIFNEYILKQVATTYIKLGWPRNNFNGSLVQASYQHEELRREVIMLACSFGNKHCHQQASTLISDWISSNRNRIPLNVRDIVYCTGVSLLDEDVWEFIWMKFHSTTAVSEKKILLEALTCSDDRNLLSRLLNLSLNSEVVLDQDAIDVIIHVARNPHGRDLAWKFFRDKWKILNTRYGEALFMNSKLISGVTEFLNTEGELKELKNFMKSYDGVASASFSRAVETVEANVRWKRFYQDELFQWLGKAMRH

Rattus norvegicus [15] = experiment: Reduction in cognitive impairment in Sprague-Dawley rat assessed as increase in number of entries to platform zone during retention trial at 10 umol/kg, iv measured on day 6 by Morris water maze test (reference value: 0.5); assay type: functional
[16] = Half life in human plasma; assay type: ADME, cell-free
TRH-degrading ectoenzyme = target: T4, TRH-degrading ectoenzyme (Mus musculus, UniProt Q8K093); experiment: Stability assessed as mouse recombinant TRH-degrading ectoenzyme-mediated compound degradation at 1 mM measured within 18 hrs by HPLC method; assay type: ADME; settings: read-out: Drug degradation
T4 sequence (Q8K093 whole entry): T3 sequence (Q8K093 whole entry)

Structure (SMILES) | EC50 [1] [nM] | EC50 [2] [nM] | IC50 [3] [nM] | IC50 [4] [nM] | inhibition in vivo at 10 µmol/kg (Mus musculus) [%] | Ratio EC50 (HEK293) | other results
NC(=O)[C@@H]1CCCN1C(=O)[C@H](Cc1c[nH]cn1)NC(=O)[C@@H]1CCC(=O)N1 [PROTIRELIN] |  |  |  |  | 51.1 | 1.9 | EC50 ([1]; hek293): 1 nM
CCCc1nc(C[C@H](NC(=O)c2nccnc2N)C(=O)N2CCC[C@H]2C(N)=O)c[nH]1 | 1560 | 120 | > 50000 | > 50000 | 52.2 | 10.5 | 
CCCc1nc(C[C@H](NC(=O)C2CCCCN2)C(=O)N2CCC[C@H]2C(N)=O)c[nH]1 (single isomer, unassigned) | 940 | 4 | > 50000 | > 50000 | 67.4 | 235 | 
NC(=O)[C@@H]1CCCN1C(=O)[C@H](Cc1nc(Br)[nH]c1Br)NC(=O)c1nccnc1N | 1410 | 290 | > 50000 | > 50000 | 12.2 | 4.8 | 
Cc1cnc(C(=O)N[C@@H](Cc2nc(Br)[nH]c2Br)C(=O)N2CCC[C@H]2C(N)=O)cn1 | 77 | 100 | > 50000 | > 50000 | 29 | 0.77 | 
Cc1cnc(C(=O)N[C@@H](Cc2nc[nH]c2Br)C(=O)N2CCC[C@H]2C(N)=O)cn1 | 498 | 40 | > 50000 | > 50000 | 23.2 | 12.4 | 
NC(=O)[C@@H]1CCCN1C(=O)[C@H](Cc1nc[nH]c1Br)NC(=O)c1nccnc1N | 287 | 6 | > 50000 | > 50000 | 29.5 | 47.8 | 
NC(=O)[C@@H]1CCCN1C(=O)[C@H](Cc1cnc[nH]1)NC(=O)[C@@H]1CCC(=O)N1 [PROTIRELIN] |  | 0.52 | 7 | 2.6 |  |  | half-life [16]: 2 min; metabolised at 18 h, 1000 µM (TRH-degrading ectoenzyme): 80%
CC(C)c1nc(C[C@H](NC(=O)C2CCCCN2)C(=O)N2CCC[C@H]2C(N)=O)c[nH]1 (single isomer, unassigned) | 1000 | 770 | > 50000 | > 50000 | 42.7 | 1.3 | 
CCCc1nc(C[C@H](NC(=O)c2cnc(C)cn2)C(=O)N2CCC[C@H]2C(N)=O)c[nH]1 | 17 | 15 | > 50000 | > 50000 | 4.1 | 1.1 | 

Now from value to compound, other results behind:

EC50 [1] [nM] | EC50 [2] [nM] | IC50 [3] [nM] | IC50 [4] [nM] | Structure (SMILES) | inhibition in vivo at 10 µmol/kg (Mus musculus) [%] | Ratio EC50 (HEK293) | other results
340 | 30 | > 50000 | > 50000 | Cn1cnc(C[C@H](NC(=O)c2cnccn2)C(=O)N2CCC[C@H]2C(N)=O)c1Br | 32.3 | 11.3 | 
3980 | 48 | > 50000 | > 50000 | NC(=O)[C@@H]1CCCN1C(=O)[C@H](Cc1nc[nH]c1Br)NC(=O)c1cnccn1 | 32.8 | 82.9 | 
7210 | 960 | > 50000 | > 50000 | CCn1c(I)nc(C[C@H](NC(=O)c2cnccn2)C(=O)N2CCC[C@H]2C(N)=O)c1I | 1.8 | 7.5 | 
11300 | 310 | > 50000 | > 50000 | NC(=O)[C@@H]1CCCN1C(=O)[C@H](Cc1nc(I)[nH]c1I)NC(=O)c1cnccn1 | 1.5 | 36.3 | 
19300 | 530 | > 50000 | > 50000 | NC(=O)[C@@H]1CCCN1C(=O)[C@H](Cc1nc[nH]c1Cl)NC(=O)c1cnccn1 | 29.8 | 36.5 | 
740 | 50 | > 50000 | > 50000 | Cc1cnc(C(=O)N[C@@H](Cc2nc(I)n(Cc3ccccc3)c2I)C(=O)N2CCC[C@H]2C(N)=O)cn1 | 50.1 | 14.8 | 
2540 | 50 | > 50000 | > 50000 | NC(=O)[C@@H]1CCCN1C(=O)[C@H](Cc1nc(Br)[nH]c1Br)NC(=O)c1cnccn1 | 74.8 | 50.8 | Time (Rattus norvegicus [5]): 167 s; Activity (Rattus norvegicus [6]): Active; Time (Rattus norvegicus [7]): 96 s; Activity (Rattus norvegicus [8]): Active; Activity (Rattus norvegicus [9]): Active; Activity (Rattus norvegicus [10]): 196.08 mm3; Activity (Rattus norvegicus [11]): Active; Time (Rattus norvegicus [12]): 36.31 s; Activity (Rattus norvegicus [13]): Non-toxic; Stability [14]: Stable; Activity (Rattus norvegicus [15]): 2.25
150 | 60 | > 50000 | > 50000 | CCCc1nc(C[C@H](NC(=O)c2cnccn2)C(=O)N2CCC[C@H]2C(N)=O)c[nH]1 | 63.6 | 2.5 | 
980 | 30 | > 50000 | > 50000 | NC(=O)[C@@H]1CCCN1C(=O)[C@H](Cc1nc(I)n(Cc2ccccc2)c1I)NC(=O)c1cnccn1 | 74.8 | 32.6 | 
